# Reference: ChEMBL document CHEMBL1201862, “PubChem BioAssay data set” (2004)
#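 Cultured in 96-well plates, cells were exposed to test compound for 48 hours across five concentrations. At the GI50, growth is halved.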 Activity calls are given as the source filed them. Cut-off read from the data, not from the text of the source: active = GI50 up to about 1.1 µM and inactive = higher.
# Assays:
# Assay in all cases: NCI tumour cell line growth inhibition, 48 h
# [1] = test system: NCI-H23
# [2] = test system: PC-3
# [3] = test system: LOX IMVI
# [4] = test system: CCRF-CEM
# [5] = test system: T47D
# [6] = test system: SF-268
# [7] = test system: MDA-MB-231
# [8] = test system: OVCAR-8
# [9] = test system: TK-10
# [10] = test system: NCI/ADR-RES
# [11] = test system: SN12C
# [12] = test system: HT-29
# [13] = test system: UACC-62
# [14] = test system: NCI-H226
# [15] = test system: SNB-75
# [16] = test system: RXF 393
# [17] = test system: SF-295
# [18] = test system: MOLT-4
# [19] = test system: SR
# [20] = test system: K562
SMILES,GI50 [1],GI50 [2],GI50 [3],GI50 [4],GI50 [5],GI50 [6],GI50 [7],GI50 [8],GI50 [9],GI50 [10],GI50 [11],GI50 [12],GI50 [13],GI50 [14],GI50 [15],GI50 [16],GI50 [17],GI50 [18],GI50 [19],GI50 [20]
OC(c1ccc(F)cc1)C(F)(F)c1nc(-c2ccccc2)no1 (stereo not given),26.1 µM (inactive),21.8 µM (inactive),86.5 µM (inactive),14.3 µM (inactive),23.7 µM (inactive),25.3 µM (inactive),2.43 µM (inactive),> 100 µM (inactive),38.3 µM (inactive),30.6 µM (inactive),21.6 µM (inactive),17.6 µM (inactive),18.2 µM (inactive),–,–,–,–,–,–,–
COc1ccc2nc3cc(Cl)ccc3c(NCCCN3CCN(CCCNc4ccc5nnn6c7ccccc7c(=O)c4c56)CC3)c2c1,19.5 µM (inactive),> 6.01 µM (inactive),0.512 µM (active),0.17 µM (active),> 25 µM (inactive),> 7.36 µM (inactive),6.32 µM (inactive),1.42 µM (inactive),> 10.3 µM (inactive),4.89 µM (inactive),1.81 µM (inactive),0.0251 µM (active),> 25 µM (inactive),> 25 µM (inactive),> 25 µM (inactive),0.948 µM (active),2.37 µM (inactive),0.0743 µM (active),–,–
CC(C)(C)OC[C@H](O)CC#N,> 100 µM (inactive),> 100 µM (inactive),> 100 µM (inactive),> 100 µM (inactive),> 100 µM (inactive),> 100 µM (inactive),> 100 µM (inactive),> 100 µM (inactive),> 100 µM (inactive),–,> 100 µM (inactive),> 100 µM (inactive),> 100 µM (inactive),> 100 µM (inactive),> 100 µM (inactive),> 100 µM (inactive),> 100 µM (inactive),> 100 µM (inactive),> 100 µM (inactive),> 100 µM (inactive)
COc1cc2c(cc1OC)C(=O)/C(=C/c1cc(Cl)cc(Cl)c1)C2,7.66 µM (inactive),4.03 µM (inactive),4.24 µM (inactive),2.07 µM (inactive),7.4 µM (inactive),21.4 µM (inactive),11.3 µM (inactive),–,55.3 µM (inactive),1.76 µM (inactive),5.93 µM (inactive),2.59 µM (inactive),3.39 µM (inactive),3.87 µM (inactive),1.86 µM (inactive),7.41 µM (inactive),2.49 µM (inactive),5.08 µM (inactive),–,0.859 µM (active)
O=C(Nc1ccccc1)Oc1ccc(C(=S)Nc2ccc(Br)cc2)cc1,17.5 µM (inactive),22.6 µM (inactive),11.9 µM (inactive),8.57 µM (inactive),22.2 µM (inactive),16.4 µM (inactive),–,12.6 µM (inactive),–,15.3 µM (inactive),–,16.8 µM (inactive),11 µM (inactive),–,–,–,20.6 µM (inactive),13.4 µM (inactive),13.4 µM (inactive),21.5 µM (inactive)
O=C(Nc1ccccc1)Nn1c(-c2cccs2)nc2ccc(I)cc2c1=O,27.3 µM (inactive),27.4 µM (inactive),19.2 µM (inactive),20.5 µM (inactive),3.33 µM (inactive),30.4 µM (inactive),–,33.3 µM (inactive),28.4 µM (inactive),30.6 µM (inactive),34.8 µM (inactive),25.9 µM (inactive),28.7 µM (inactive),28.8 µM (inactive),2.74 µM (inactive),30.4 µM (inactive),42.6 µM (inactive),–,16.8 µM (inactive),0.022 µM (active)
O=[N+]([O-])c1cc2c(c3nonc13)OCCCCO2,10.2 µM (inactive),14.9 µM (inactive),2.81 µM (inactive),1.5 µM (inactive),26.5 µM (inactive),3.37 µM (inactive),3.31 µM (inactive),4.36 µM (inactive),21.8 µM (inactive),10.5 µM (inactive),4.6 µM (inactive),3.88 µM (inactive),5.77 µM (inactive),14.4 µM (inactive),10.6 µM (inactive),7.74 µM (inactive),17.5 µM (inactive),3.99 µM (inactive),–,3.64 µM (inactive)
COc1cc(C(=O)C/C(CCC(=O)Nc2ccccc2[N+](=O)[O-])=N\NC(N)=O)ccc1O,> 100 µM (inactive),–,> 100 µM (inactive),> 100 µM (inactive),–,> 100 µM (inactive),–,> 100 µM (inactive),> 100 µM (inactive),–,> 100 µM (inactive),> 100 µM (inactive),> 100 µM (inactive),> 100 µM (inactive),> 100 µM (inactive),> 100 µM (inactive),> 100 µM (inactive),> 100 µM (inactive),> 100 µM (inactive),> 100 µM (inactive)
O=C(CCc1ccccc1)NS(=O)(=O)c1ccccc1,> 100 µM (inactive),–,> 100 µM (inactive),> 100 µM (inactive),–,> 100 µM (inactive),–,> 100 µM (inactive),> 100 µM (inactive),–,> 100 µM (inactive),> 100 µM (inactive),> 100 µM (inactive),> 100 µM (inactive),> 100 µM (inactive),> 100 µM (inactive),> 100 µM (inactive),> 100 µM (inactive),> 100 µM (inactive),> 100 µM (inactive)
O=C(/C=C/c1ccc(Cl)c(Cl)c1)Oc1ccc(/C=C2\CCCCC2=O)cc1,> 100 µM (inactive),> 100 µM (inactive),> 100 µM (inactive),> 100 µM (inactive),> 100 µM (inactive),39 µM (inactive),> 100 µM (inactive),> 100 µM (inactive),> 100 µM (inactive),> 100 µM (inactive),> 100 µM (inactive),> 100 µM (inactive),> 100 µM (inactive),–,> 100 µM (inactive),–,> 100 µM (inactive),24.6 µM (inactive),> 100 µM (inactive),–
COc1cc2cc(OC)c3cc4c(cc3c2c(OC)c1OC)OCO4,39.8 µM (inactive),–,15.5 µM (inactive),15 µM (inactive),–,> 51.1 µM (inactive),–,> 59.4 µM (inactive),48.3 µM (inactive),–,> 69.3 µM (inactive),10.9 µM (inactive),19.3 µM (inactive),> 100 µM (inactive),7.55 µM (inactive),42.9 µM (inactive),28.1 µM (inactive),22.8 µM (inactive),18.5 µM (inactive),9.46 µM (inactive)
CCOC(=O)c1cc2nc3ccccc3c(=O)n2c2ccccc12,> 10 µM (inactive),> 10 µM (inactive),> 10 µM (inactive),> 10 µM (inactive),> 10 µM (inactive),> 10 µM (inactive),> 10 µM (inactive),> 10 µM (inactive),> 10 µM (inactive),> 10 µM (inactive),> 10 µM (inactive),> 10 µM (inactive),> 10 µM (inactive),> 10 µM (inactive),6.32 µM (inactive),> 10 µM (inactive),> 10 µM (inactive),–,–,> 10 µM (inactive)
COC1(OC)N=C(N)C2(C#N)C(C)=C3NCN(C)N=C3C12C#N (stereo not given),> 100 µM (inactive),> 100 µM (inactive),> 100 µM (inactive),> 10 µM (inactive),> 100 µM (inactive),> 100 µM (inactive),> 100 µM (inactive),> 100 µM (inactive),> 100 µM (inactive),> 100 µM (inactive),> 100 µM (inactive),> 100 µM (inactive),> 100 µM (inactive),> 100 µM (inactive),> 100 µM (inactive),> 100 µM (inactive),> 100 µM (inactive),–,–,> 100 µM (inactive)
[O-][S+]1Nc2cccc(C(F)(F)F)c2S1 (stereo not given),41.8 µM (inactive),–,21.1 µM (inactive),6.78 µM (inactive),–,48 µM (inactive),–,54.8 µM (inactive),34.4 µM (inactive),–,35.6 µM (inactive),35.7 µM (inactive),27.7 µM (inactive),73.3 µM (inactive),29.6 µM (inactive),22.5 µM (inactive),45.4 µM (inactive),21 µM (inactive),25.5 µM (inactive),31.3 µM (inactive)
CSC(=S)N/N=C/c1nccc2ccccc12,1.42 µM (inactive),–,1.49 µM (inactive),0.115 µM (active),–,1.04 µM (active),–,0.454 µM (active),7.08 µM (inactive),–,1.6 µM (inactive),0.701 µM (active),1.29 µM (inactive),1.69 µM (inactive),0.522 µM (active),0.721 µM (active),1.48 µM (inactive),0.204 µM (active),0.291 µM (active),0.392 µM (active)
COC(=O)[C@H](Cc1ccccc1)NC(=O)N1CCN(C(=O)N[C@@H](Cc2ccccc2)C(=O)OC)CCN(C(=O)N[C@@H](Cc2ccccc2)C(=O)OC)CC1,> 100 µM (inactive),> 100 µM (inactive),> 100 µM (inactive),> 100 µM (inactive),> 100 µM (inactive),> 100 µM (inactive),–,> 100 µM (inactive),> 100 µM (inactive),> 100 µM (inactive),> 100 µM (inactive),> 100 µM (inactive),> 100 µM (inactive),> 100 µM (inactive),> 100 µM (inactive),> 100 µM (inactive),> 100 µM (inactive),> 100 µM (inactive),–,> 100 µM (inactive)
